One data set concerns P. falciparum 3D7 strain. Description: Drug susceptibility assay for P. falciparum using HRP2 sandwich ELISA. In kind it is cell-based. The note with it: read-out: IC50 inhibition of P. falciparum parasites in culture. How it is done: The P. falciparum 3D7 strain was cultured and maintained according to the standard procedures with minor modifications. Cultures were maintained in RPMI 1640 (GibcoTM, Waltham, MA, USA) supplemented with 0.5% Albumax (GibcoTM), 50 mg/L hypoxanthine (Sigma-Aldrich), 2 gm/L D-glucose (Sigma-Aldrich), 2 gm/L sodium bicarbonate (Sigma-Aldrich), and 56 mg/L of gentamicin (Abbott, Chicago, IL, USA). Blood for parasite cultures was procured from volunteer blood donors with approval from the Institute Ethical Committee.
Samples from the continuous culture of P. falciparum were synchronised to obtain predominant rings of 0.25% parasitemia at 3% haematocrit. Compounds were made at a stock concentration of 10 mM in 100% DMSO, with the FDA-approved antimalarial dihydroartemisinin (a kind gift from IPCA Laboratories, Mumbai, India) as a control. Compound dilutions were made in RPMI 1640 to obtain the desired final test concentrations for the IC50 analysis.
The HRP2-sandwich ELISA assay was performed according to the standard protocol. Briefly, the PfHRP2 protein concentration in the culture wells, indicative of the level of parasitemia, is measured using a sandwich ELISA technique. Serial 2-fold dilutions of compounds (25 µL/well) were manually dispensed into standard 96-well microculture plates (Eppendorf). Subsequently, 200 µL of P. falciparum culture at 0.25% parasitemia (3% haematocrit) was added to each well. The plates were then incubated for 72 h at 37 °C in 5% CO2 in a humidified incubator. Plates were then subjected to freeze–thaw to achieve complete haemolysis. PfHRP2 levels in control and test samples were measured using a horseradish peroxidase enzyme-linked immunosorbent assay at 450 nm. GraphPad Prism 9.2.0 was used to perform non-linear regression analysis to determine the IC50 values.
(§1) Non-linear regression analysis was performed in GraphPad Prism 9.2.0 (San Diego, CA, USA) to fit four parameter dose–response curves using the formula: y = a + ((b − a)/(1 + 10^(Log(c) − x) × d)), where a and b are the minimum and maximum asymptotes respectively, c is the half-maximal inhibitory concentration value (IC50), and d is the slope at the steepest part of the curve (the Hill slope).

The target of the next data set is PfIMPα:TGS1-NLS-GFP (Plasmodium falciparum, UniProt Q8IAW0). Nature of the data set: AlphaScreen binding assay, inhibition of PfIMPα binding to TGS1-NLS-GFP. Also noted: species or system P. falciparum.
A further data set concerns the target TgIMPα:T-ag-NLS-GFP (Toxoplasma gondii, UniProt A0A125YID0). Description: AlphaScreen binding assay, inhibition of TgIMPα binding to T-ag-NLS-GFP. The procedure: (§2) IC50 analysis was performed in quadruplicate using an AlphaScreen binding assay as previously, using bacterially expressed glutathione S-transferase (GST)-C-terminally tagged PfIMPα and TgIMPα proteins, as well as SV40 T-ag-NLS-GFP fusion protein and MmIMPβ1 [11, 41]. As previously, nickel-acceptor and streptavidin-donor beads were used. The AlphaScreen signal was measured on a Perkin Elmer plate reader, and IC50 plots drawn using GraphPad Prism 9.0.2 (San Diego, CA, USA).
as §1

A further data set concerns the target T1, MmΔIBBIMPα:T-ag-NLS-GFP (Mus musculus, UniProt P52293).
T1 construct: made in house
Description: AlphaScreen binding assay, inhibition of MmΔIBBIMPα binding to T-ag-NLS-GFP.

The target in another data set is PfIMPα:MmIMPβ1 (Plasmodium falciparum, UniProt Q8IAW0). Description: AlphaScreen binding assay, inhibition of PfIMPα binding to MmIMPβ1. How it is done:
as §2, §1

The target of another data set is TgIMPα:MmIMPβ1 (Toxoplasma gondii, UniProt A0A125YID0). Description: AlphaScreen binding assay, inhibition of TgIMPα binding to MmIMPβ1. The procedure:
as §2, §1

Another data set has as its target T2, MmIMPα:MmIMPβ1 (Mus musculus, UniProt P52293).
T2 construct: GST; made in house
Description: AlphaScreen binding assay, inhibition of MmIMPα binding to MmIMPβ1.

Data set [1] concerns the target T3, PfIMPα (Plasmodium falciparum, UniProt Q8IAW0). Description: Intrinsic tryptophan fluorescence assay, PfIMPα. In kind it is binding. The procedure: (§3) Tryptophan fluorescence spectroscopy experiments were performed using a JASCO Fluorescence Spectrophotometer (JASCO, Hachioji, Tokyo, Japan) (0.5 mL quartz cuvette), with a fixed excitation wavelength of 295 nm and emission spectra collected between 310 and 400 nm with a slit width of 5 nm at 25 °C. Increasing concentrations of compounds in DMSO were incubated with the IMPαs (1 µM) in PBS for 5 min at room temperature prior to measurement. Data from three independent experiments were analysed using GraphPad Prism 10 (San Diego, CA, USA). Non-linear regression analysis was used to fit the one-site binding curves using the equation: y = Bmax * x/(Kd + x), where Bmax represents the maximum binding capacity and Kd is the dissociation constant, reflecting the concentration of ligand at which half-maximal binding is achieved.

The target in data set [2] is T4, TgIMPα (Toxoplasma gondii, UniProt A0A125YID0). Description: Intrinsic tryptophan fluorescence assay, TgIMPα. In kind it is binding. The procedure: as §3
Data set [3] deals with T5, MmIMPα (Mus musculus, UniProt P52293).
T5 construct: GST; made in house
Nature of the data set: Intrinsic tryptophan fluorescence assay, MmIMPα. In kind it is binding. The note with it: pooled, mean ± SEM (n = 3); IMPα 1 µM, 340 nm. The procedure: as §3

The test system of data set [4] is T. gondii RH strain expressing a luciferase reporter (RH-Fluc) tachyzoites. Description: T. gondii tachyzoite growth inhibition assay (luciferase) in HFF host cells. Format: cell-based. The conditions noted are these: 48 h, luminescence, mean ± SD (n = 3). The procedure:
A T. gondii RH strain expressing a luciferase reporter (RH-Fluc) was used to assess the effect of the inhibitors on growth as described. T. gondii tachyzoites were maintained and cultured at 37 °C in 5% CO2 in a humidified incubator using primary human foreskin fibroblasts (HFF, ATCC) maintained in Dulbecco’s modified Eagle medium (DMEM) (GibcoTM, Waltham, MA, USA) supplemented with 3.7 g/L sodium bicarbonate and 2.38 g/L HEPES, 10% Cosmic Calf serum (HycloneTM, Logan, UT, USA) and 20 mg/L gentamicin [46, 47]. Growth inhibition was monitored by luminescence, where 100 μL of culture medium without or with inhibitors, followed by 100 µL of DMEM containing 5000 parasites, were added to confluent monolayers of HFF cells in 96-well culture dishes (Eppendorf, Hamburg, Germany). After 48 h, 150 µL of the culture medium was discarded from each well, and 10 µL lysis buffer was added to lyse the parasites, followed by 50 μL of 2× luciferase assay reagent (Promega, Madison, WI, USA). Luminescence was then measured directly for 10 s using a Varioskan™ LUX multimode microplate reader (Thermo Fisher Scientific, Waltham, MA, USA). […]

Data set [5] in a line: MTT assay for host cell cytotoxicity. In kind it is cell-based. The conditions noted are these: human, HFF cells (freshly confluent), mean ± SD (n = 2). How it is done:
The MTT assay was used to measure the cytotoxicity of the small molecules against the HFF cells as described. Briefly, freshly confluent HFF cells were incubated for 48 h in a 96-well culture plate at 37 °C in a humidified incubator (5% CO2 atmosphere) in the presence of increasing concentrations of compounds (total volume 200 uL). A 10 μL quantity of MTT reagent (Sigma Aldrich) prepared in complete DMEM medium was then added to each well, and incubation continued for a further 3 h. 150 μL of the medium containing the MTT reagent was then removed from each well and replaced with 150 μL DMSO. Plates were then incubated room temperature in the dark for 20 min, after which absorbance for each well was measured at 570 nm. Data were analysed in GraphPad Prism 9 software.

Data set [6] has as its target T3, PfIMPα. Nature of the data set: Far-UV CD spectroscopy, PfIMPα. In kind it is binding. The note with it: 30 or 80 μM compound. The procedure:
(§4) CD spectroscopy experiments were carried out to assess direct binding of moxidectin and ivermectin to different IMPαs as described. CD spectra at […] protein concentration were recorded from 200–260 nm using a Jasco CD spectrometer (Jasco, Easton, MD, USA) in the absence and presence of 30 or 80 μM ivermectin or moxidectin, with percentage α-helix content estimated from the ellipticity at 222 nm as described using the CD Multivariate secondary structure estimation analysis program.

In data set [7] the target is T4, TgIMPα. Nature of the data set: Far-UV CD spectroscopy, TgIMPα. Format: binding. The conditions noted are these: 30 or 80 μM compound. The procedure: as §4
The target in data set [8] is T5, MmIMPα. Nature of the data set: Far-UV CD spectroscopy, MmIMPα. Format: binding. The conditions noted are these: 30 or 80 μM compound. How it is done:
as §4

Where [9] appears, read: Plasmodium falciparum, 3D7, 72 h, asexual stages, pooled, mean ± SD (n = 3).
Setting [10] is: Plasmodium falciparum, 3D7, 72 h, single typical experiment of Figure 5, duplicate.
Setting [11] is: single experiment of Figure 1b, quadruplet wells.
The mark [12] stands for this setting: pooled, mean ± SEM (n = 3), MmIMPβ1 30 nM, IMPα 30 nM.
Setting [13] is: single typical experiment of Figure 2, quadruplet wells.
The mark [14] stands for this setting: pooled, mean ± SEM (n = 3), IMPα 1 µM, 340 nm.
[15] abbreviates: single typical set of measurements, Figure 4b.

Several values for one entry are separate records, joined by “and”; a condition that tells them apart may be missing. Equal values may be shown once. Read-outs that look alike come from different tables or passages of the source.

T3 sequence (Q8IAW0 entry or part of it): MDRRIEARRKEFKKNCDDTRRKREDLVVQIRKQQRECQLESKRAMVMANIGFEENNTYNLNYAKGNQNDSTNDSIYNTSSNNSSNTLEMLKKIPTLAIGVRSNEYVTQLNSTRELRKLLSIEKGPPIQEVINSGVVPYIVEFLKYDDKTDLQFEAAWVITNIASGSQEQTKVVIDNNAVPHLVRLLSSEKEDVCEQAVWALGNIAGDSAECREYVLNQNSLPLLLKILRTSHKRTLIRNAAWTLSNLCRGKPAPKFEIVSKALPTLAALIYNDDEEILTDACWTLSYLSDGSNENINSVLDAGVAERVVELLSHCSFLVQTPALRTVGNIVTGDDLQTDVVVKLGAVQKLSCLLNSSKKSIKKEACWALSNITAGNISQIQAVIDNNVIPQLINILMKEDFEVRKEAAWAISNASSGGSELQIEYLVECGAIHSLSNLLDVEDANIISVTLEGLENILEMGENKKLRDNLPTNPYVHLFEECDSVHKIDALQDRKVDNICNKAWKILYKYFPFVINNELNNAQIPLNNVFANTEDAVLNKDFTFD
T4 sequence (A0A125YID0 entry or part of it): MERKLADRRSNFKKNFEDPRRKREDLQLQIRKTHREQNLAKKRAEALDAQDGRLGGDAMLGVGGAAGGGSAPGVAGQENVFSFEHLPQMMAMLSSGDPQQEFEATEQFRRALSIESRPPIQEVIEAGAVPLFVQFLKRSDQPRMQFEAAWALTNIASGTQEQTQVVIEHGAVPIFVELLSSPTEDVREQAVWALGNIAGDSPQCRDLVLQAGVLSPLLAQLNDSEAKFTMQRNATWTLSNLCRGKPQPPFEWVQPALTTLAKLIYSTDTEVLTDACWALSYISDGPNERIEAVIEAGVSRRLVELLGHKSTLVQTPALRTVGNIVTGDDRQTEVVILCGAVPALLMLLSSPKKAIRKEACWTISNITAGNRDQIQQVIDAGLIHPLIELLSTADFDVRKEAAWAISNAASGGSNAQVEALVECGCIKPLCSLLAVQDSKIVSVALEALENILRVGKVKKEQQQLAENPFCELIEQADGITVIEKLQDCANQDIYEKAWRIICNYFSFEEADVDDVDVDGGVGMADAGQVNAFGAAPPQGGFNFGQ
Chain of TgIMPα:MmIMPβ1 (P70168 whole entry): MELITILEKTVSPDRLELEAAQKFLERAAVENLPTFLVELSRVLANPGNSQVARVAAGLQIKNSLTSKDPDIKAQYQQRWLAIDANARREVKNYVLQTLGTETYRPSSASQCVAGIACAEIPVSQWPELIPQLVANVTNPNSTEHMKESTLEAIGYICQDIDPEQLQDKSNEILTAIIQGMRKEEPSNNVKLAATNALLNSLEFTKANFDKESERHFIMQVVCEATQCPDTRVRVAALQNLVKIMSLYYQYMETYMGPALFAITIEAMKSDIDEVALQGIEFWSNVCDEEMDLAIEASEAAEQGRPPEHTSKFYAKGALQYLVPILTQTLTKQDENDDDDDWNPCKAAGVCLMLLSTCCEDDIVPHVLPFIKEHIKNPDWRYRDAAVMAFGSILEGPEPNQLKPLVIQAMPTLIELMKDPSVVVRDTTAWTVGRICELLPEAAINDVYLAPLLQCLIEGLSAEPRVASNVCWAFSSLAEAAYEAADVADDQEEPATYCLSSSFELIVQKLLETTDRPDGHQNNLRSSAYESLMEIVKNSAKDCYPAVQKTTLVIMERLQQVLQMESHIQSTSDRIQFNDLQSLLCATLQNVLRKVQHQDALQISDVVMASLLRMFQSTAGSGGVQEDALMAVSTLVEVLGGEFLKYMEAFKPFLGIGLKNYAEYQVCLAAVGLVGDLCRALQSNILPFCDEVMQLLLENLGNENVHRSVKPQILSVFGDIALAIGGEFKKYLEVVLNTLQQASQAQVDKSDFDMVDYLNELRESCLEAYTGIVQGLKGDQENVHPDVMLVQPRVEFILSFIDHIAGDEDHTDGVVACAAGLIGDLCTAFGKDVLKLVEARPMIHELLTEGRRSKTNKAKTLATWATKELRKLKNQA
Chain of TgIMPα:MmIMPβ1 (A0A125YID0 entry or part of it): as the sequence (A0A125YID0 entry or part of it) above
Chain of PfIMPα:TGS1-NLS-GFP (Q8IAW0 entry or part of it): as the sequence (Q8IAW0 entry or part of it) above
Chain of PfIMPα:MmIMPβ1 (Q8IAW0 entry or part of it): as above
Chain of PfIMPα:MmIMPβ1 (P70168 whole entry, further chain): as the sequence (P70168 whole entry) above
Chain of TgIMPα:T-ag-NLS-GFP (A0A125YID0 entry or part of it): as the sequence (A0A125YID0 entry or part of it) above

Consider `C[C@H]1[C@@H](O)O[C@@H]2O[C@@]3(C)CC[C@H]4[C@H](C)CC[C@@H]1[C@@]24OO3` [DHA, dihydroartemisinin], for which the IC50 in the data set with P. falciparum 3D7 strain (setting [9]) came out at 0.001 ± 0.0005 µM; in the data set with P. falciparum 3D7 strain (setting [10]), 0.0007 µM.
As to `CO/N=C1\C[C@]2(C[C@@H]3C[C@@H](C/C=C(\C)C[C@@H](C)/C=C/C=C4\CO[C@@H]5[C@H](O)C(C)=C[C@@H](C(=O)O3)[C@]45O)O2)O[C@H](/C(C)=C/C(C)C)[C@H]1C` [Moxidectin, moxidectin], the IC50 on PfIMPα:TGS1-NLS-GFP (pooled, mean ± SEM (n = 3), IMPα 5 nM, NLS protein 30 nM) is 4.8 ± 0.4 µM; at PfIMPα:TGS1-NLS-GFP (setting [11]), 4.6 µM; on TgIMPα:T-ag-NLS-GFP (pooled, mean ± SEM (n = 3), IMPα 5 nM, NLS protein 30 nM, read-out: IC50 inhibition of TgIMPα:Tag-NLS-GFP binding), 3.8 ± 0.8 µM; at TgIMPα:T-ag-NLS-GFP (setting [11]) it was 3.6 µM; at MmΔIBBIMPα:T-ag-NLS-GFP (pooled, mean ± SEM (n = 3), IMPα 5 nM, NLS protein 30 nM, read-out: IC50 inhibition of MmΔIBBIMPα:Tag-NLS-GFP binding), 3.6 ± 0.5 µM; on MmΔIBBIMPα:T-ag-NLS-GFP (setting [11]), 2.8 µM. For the same molecule, the IC50 at PfIMPα:MmIMPβ1 (setting [12]) was 3.4 ± 0.4 µM; on PfIMPα:MmIMPβ1 (setting [13]), 3.8 µM; at TgIMPα:MmIMPβ1 (setting [12]), 2.7 ± 0.2 µM; at TgIMPα:MmIMPβ1 (setting [13]), 3.2 µM; on MmIMPα:MmIMPβ1 (setting [12]), ~4 µM and 4 µM; on MmIMPα:MmIMPβ1 (setting [13]), 4.7 µM. Also, the IC50 was 1 µM in the data set on P. falciparum 3D7 strain (setting [9]); 0.8 µM with P. falciparum 3D7 strain (setting [10]); 0.9 ± 0.1 µM with P. falciparum 3D7 strain (asexual stages, 72 h, pooled, mean ± SD (n = 3)); 35 ± 3.1 µM in [4]; 30 to 35 µM in data set [4] (Toxoplasma gondii). Besides, the Kd stood at 7.8 ± 1.2 µM on PfIMPα [1] (setting [14]); 8.3 µM on PfIMPα [1] (setting [15]); 19 ± 2.2 µM at TgIMPα [2] (setting [14]); 19.3 µM at TgIMPα [2] (setting [15]); 4.1 ± 0.2 µM at MmIMPα [3]. In data set [5], the CC50 at 48 h was around 10 µM. In addition, the “Effect on α-helicity of PfIMPα (CD spectra)” value on PfIMPα [6] is recorded as “concentration-dependent reduction in α-helicity”. The “Effect on α-helicity of TgIMPα (CD spectra)” value at TgIMPα [7] is given as “concentration-dependent reduction in α-helicity”. Besides, the “Effect on α-helicity of MmIMPα (CD spectra)” value on MmIMPα [8] is listed as “concentration-dependent reduction in α-helicity”.

For the origin of these results see article PMC11720742, “The Ivermectin Related Compound Moxidectin Can Target Apicomplexan Importin α and Limit Growth of Malarial Parasites” (Cells, 2025).
